In US9115143B2, “Substituted indole derivatives as gamma secretase modulators” (Janssen Pharmaceuticals, Inc., priority 2011, dated 2015):

Tests used:
Aβ38 = experiment: In vivo efficacy B-2b: brain soluble Aβ38, MSD electrochemiluminescence multiplex; conditions: mouse brain soluble fraction, dose 30 mg/kg oral dosing, 4 h after dose; untreated control set at 100; read-out: Aβ38 (% vs Ctrl)_Mean
Description: (§1) To determine whether acute administration of an Aβ38 increasing agents would increase Aβ38 levels in vivo, non-transgenic rodents, e.g. mice or rats were used. Animals treated with the Aβ38 increasing agents were examined and compared to those untreated or treated with vehicle and brain levels of soluble Aβ42, Aβ40, Aβ38, and Aβ37 were quantitated by MSD electrochemiluminescence detection technology. Treatment periods varied from hours (h) to days and were adjusted based on the results of the Aβ38 increase once a time course of onset of effect could be established.
(§2) A typical protocol for measuring Aβ38 increase in vivo is shown but it is only one of many variations that could be used to optimize the levels of detectable Aβ. For example, Aβ38 increasing agents were formulated in 20% of Captisol® (a sulfobutyl ether of β-cyclodextrin) in water or 20% hydroxypropyl β cyclodextrin. The Aβ38 increasing agents were administered as a single oral dose or by any acceptable route of administration to overnight fasted animals. After 4 h, the animals were sacrificed and Aβ38 levels were analysed.
(§3) Blood was collected by decapitation and exsanguinations in EDTA-treated collection tubes. Blood was centrifuged at 1900 g for 10 minutes (min) at 4° C. and the plasma recovered and flash frozen for later analysis. The brain was removed from the cranium and hindbrain. The cerebellum was removed and the left and right hemisphere were separated. The left hemisphere was stored at −18° C. for quantitative analysis of test compound levels. The right hemisphere was rinsed with phosphate-buffered saline (PBS) buffer and immediately frozen on dry ice and stored at −80° C. until homogenization for biochemical assays.
(§4) Mouse brains from non-transgenic animals were resuspended in 8 volumes of 0.4% DEA (diethylamine)/50 mM NaCl containing protease inhibitors (Roche-11873580001 or 04693159001) per gram of tissue, e.g. for 0.158 g brain, add 1.264 ml of 0.4% DEA. All samples were homogenized in the FastPrep-24 system (MP Biomedicals) using lysing matrix D (MPBio #6913-100) at 6 m/s for 20 seconds. Homogenates were centrifuged at 20800×g for 5 min and supernatants collected. Supernatants were centrifuged at 221.300×g for 50 min. The resulting high speed supernatants were then transferred to fresh eppendorf tubes. Nine parts of supernatant were neutralized with 1 part 0.5 M Tris-HCl pH 6.8 and used to quantify Aβ.
(§5) To quantify the amount of Aβ42, Aβ40, Aβ38, and Aβ37 in the soluble fraction of the brain homogenates, simultaneous specific detection of Aβ42, Aβ40, Aβ38, and Aβ37 was performed using MSD's electro-chemiluminescence multiplex detection technology. In this assay purified monoclonal antibodies specific for Abeta37 (JRD/Aβ37/3), Abeta38 (J&JPRD/Aβ38/5), Abeta40 (JRF/cAβ40/28), and Abeta42 (JRF/cAβ42/26) were coated on MSD 4-plex plates. Briefly, the standards (a dilution of synthetic Aβ42, Aβ40, Aβ38, and Aβ37) were prepared in 1.5 ml Eppendorf tube in Ultraculture, with final concentrations ranging from 10000 to 0.3 pg/m. The samples and standards were co-incubated with Sulfo-tag labelled JRF/rAβ/2 antibody to the N-terminus of Aβ as detector antibody. 50 μl of conjugate/sample or conjugate/standards mixtures were then added to the antibody-coated plate. The plate was allowed to incubate overnight at 4° C. in order to allow formation of the antibody-amyloid complex. Following this incubation and subsequent wash steps the assay was finished by adding read buffer according to the manufacturer's instructions (Meso Scale Discovery, Gaitherburg, Md.).
(§6) The SULFO-TAG emits light upon electrochemical stimulation initiated at the electrode. MSD Sector instrument SI6000 was used for signal read-out.
In this model a Aβ38 increase compared to untreated animals would be advantageous, in particular a Aβ38 increase with at least 10%, more in particular a Aβ38 increase with at least 20%. […]

Aβ42 [1] = experiment: In vivo efficacy B-1b: brain soluble Aβ42, MSD electrochemiluminescence multiplex; conditions: mouse brain soluble fraction, dose 30 mg/kg oral dosing, 4 h after dose; untreated control set at 100; read-out: Aβ42 (% vs Ctrl)_Mean
Description: as §1, with “Aβ42 lowering agent” for “Aβ38 increasing agents”, “reduce Aβ42” for “increase Aβ38”, “Meso Scale Discovery's (MSD)” for “MSD”, “Aβ42 lowering” for “Aβ38 increase”
as §2, with “measuring Aβ42 lowering” for “measuring Aβ38 increase”, “example, Aβ42 lowering compounds” for “example, Aβ38 increasing agents”, “The Aβ42 lowering” for “The Aβ38 increasing”, “and Aβ42” for “and Aβ38”
as §3, §4, §5, §6
In this model a Aβ42 lowering compared to untreated animals would be advantageous, in particular a Aβ42 lowering with at least 10%, more in particular a Aβ42 lowering with at least 20%. […]

Aβtotal = experiment: Screening for γ-secretase-modulating activity: Aβtotal in supernatant of SKNBE2 cells carrying hAPP 695 wild type (Alphalisa); assay type: cell-based, human; conditions: overnight incubation, Alphalisa on supernatant
In short: (§7)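 SKNBE2 human neuroblastoma cells expressing wild-type hAPP 695 (10^4/well) were incubated overnight at 37 °C, 5% CO2 with compound at several concentrations. Supernatant Aβ42 and Aβtotal measured by AlphaLISA sandwich immunoassays; IC50 from 4-parameter fit of percent of untreated control versus log concentration.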

Aβ42 [2] = experiment: Screening for γ-secretase-modulating activity: Aβ42 in supernatant of SKNBE2 cells carrying hAPP 695 wild type (Alphalisa); assay type: cell-based, human; conditions: overnight incubation, Alphalisa on supernatant
In short: as §7

Aβ40 = experiment: In vivo efficacy B-1b/B-2b: brain soluble Aβ40, MSD electrochemiluminescence multiplex; conditions: mouse brain soluble fraction, dose 30 mg/kg oral dosing, 4 h after dose; untreated control set at 100; read-out: Aβ40 (% vs Ctrl)_Mean
Description: as §1, with “Aβ42 lowering agent” for “Aβ38 increasing agents”, “reduce Aβ42” for “increase Aβ38”, “Meso Scale Discovery's (MSD)” for “MSD”, “Aβ42 lowering” for “Aβ38 increase”
as §2, with “measuring Aβ42 lowering” for “measuring Aβ38 increase”, “example, Aβ42 lowering compounds” for “example, Aβ38 increasing agents”, “The Aβ42 lowering” for “The Aβ38 increasing”, “and Aβ42” for “and Aβ38”
as §3, §4, §5, §6
The results are shown in Table 5 (dose 30 mg/kg oral dosing) (value for untreated animals as control (Ctrl) was set at 100): […]

[3] = Homo sapiens, SKNBE2, SKNBE2 human neuroblastoma cells carrying hAPP 695 wild type
[4] = SKNBE2 human neuroblastoma cells carrying hAPP 695 wild type

| IC50 (Aβtotal; [3]) | IC50 (Aβ42 [2]; [4]) | IC50 (Aβtotal; [4]) | melting point | IC50 (Aβ42 [2]; [3]) | Structure (SMILES) | response vs control in vivo at 30 mg/kg (Aβ38) | response vs control in vivo at 30 mg/kg (Aβ42 [1]) | response vs control in vivo at 30 mg/kg (Aβ40) |
| --- | --- | --- | --- | --- | --- | --- | --- | --- |
| > 10000 nM | 45 nM | – | – | – | COc1c(C#N)ccc2[nH]c(-c3nc4n(n3)CCOC4c3ccccc3C(F)(F)F)cc12 (single isomer, unassigned) [Compound 56, 2-[5,6-dihydro-8-[2-(trifluoromethyl)phenyl]-8H-[1,2,4]triazolo[5,1-c][1,4]oxazin-2-yl]-4-methoxy-1H-indole-5-carbonitrile] | 139% | 54% | 91% |
| – | 65 nM | > 10000 nM | – | – | COc1c(C#N)ccc2[nH]c(-c3cn4c(n3)C(c3ccc(F)c(Cl)c3)OCC4)cc12 (stereo not drawn) [Compound 154, 2-[8-(3-chloro-4-fluorophenyl)-5,6-dihydro-8H-imidazo[2,1-c][1,4]oxazin-2-yl]-4-methoxy-1H-indole-5-carbonitrile] | 170% | 90% | 101% |
| 6460 nM | 27 nM | – | – | – | COc1c(C#N)ccc2[nH]c(-c3cn4c(n3)C(c3cccc(F)c3C(F)(F)F)OCC4)cc12 (single isomer, unassigned) [Compound 131, 2-[8-[3-fluoro-2-(trifluoromethyl)phenyl]-5,6-dihydro-8H-imidazo[2,1-c][1,4]oxazin-2-yl]-4-methoxy-1H-indole-5-carbonitrile] | 144% | 62% | 72% |
| > 10000 nM | 21 nM | – | – | – | COc1c(C#N)ccc2[nH]c(-c3cn4c(n3)C(c3ccccc3C(F)(F)F)OCC4)cc12 (single isomer, unassigned) [Compound 44, 2-[5,6-dihydro-8-[2-(trifluoromethyl)phenyl]-8H-imidazo[2,1-c][1,4]oxazin-2-yl]-4-methoxy-1H-indole-5-carbonitrile] | 110% | 27% | 31% |
| – | 20 nM | > 10000 nM | – | – | COc1c(C#N)ccc2[nH]c(-c3cn4c(n3)C(c3cccc(F)c3C)OCC4)cc12 (stereo not drawn) [Compound 41, 2-[8-(3-fluoro-2-methylphenyl)-5,6-dihydro-8H-imidazo[2,1-c][1,4]oxazin-2-yl]-4-methoxy-1H-indole-5-carbonitrile] | 140% | 34% | 35% |
| – | 708 nM | > 10000 nM | 255.6 °C | – | COc1c(C#N)ccc2[nH]c(-c3cn4c(n3)C(c3ccccc3Cl)OCC4)cc12 (stereo not drawn) [Compound 51, 2-[8-(2-chlorophenyl)-5,6-dihydro-8H-imidazo[2,1-c][1,4]oxazin-2-yl]-4-methoxy-1H-indole-5-carbonitrile] | – | – | – |

The remaining lines, values behind:

| Structure (SMILES) | IC50 (Aβtotal; [3]) | IC50 (Aβ42 [2]; [4]) | IC50 (Aβtotal; [4]) | melting point | IC50 (Aβ42 [2]; [3]) | response vs control in vivo at 30 mg/kg (Aβ38) | response vs control in vivo at 30 mg/kg (Aβ42 [1]) | response vs control in vivo at 30 mg/kg (Aβ40) |
| --- | --- | --- | --- | --- | --- | --- | --- | --- |
| COc1c(C#N)ccc2[nH]c(-c3nc4n(n3)CCOC4c3cccc(C)c3F)cc12 (single isomer, unassigned) [Compound 148, 2-[8-(2-fluoro-3-methylphenyl)-5,6-dihydro-8H-[1,2,4]triazolo[5,1-c][1,4]oxazin-2-yl]-4-methoxy-1H-indole-5-carbonitrile] | > 10000 nM | 74 nM | – | – | – | 132% | 110% | 118% |
| COc1c(C#N)ccc2[nH]c(-c3nc4n(n3)CCOC4c3ccc(F)cc3C)cc12 (stereo not drawn) [Compound 115, 2-[8-(4-fluoro-2-methylphenyl)-5,6-dihydro-8H-[1,2,4]triazolo[5,1-c][1,4]oxazin-2-yl]-4-methoxy-1H-indole-5-carbonitrile] | – | 1480 nM | > 10000 nM | 257.4 °C | – | – | – | – |
| Cc1cn(-c2ccc3[nH]c(-c4nc5n(n4)CCOC5c4ccc(F)cc4C)cc3c2)cn1 (single isomer, unassigned) [Compound 109, 8-(4-fluoro-2-methylphenyl)-5,6-dihydro-2-[5-(4-methyl-1H-imidazol-1-yl)-1H-indol-2-yl]-8H-[1,2,4]triazolo[5,1-c][1,4]oxazine] | > 10000 nM | 537 nM | – | 278.9 °C | – | – | – | – |
| Cc1cc(F)ccc1C1OCCn2nc(-c3cc4nc(-c5cnn(C)c5)ccc4[nH]3)nc21 (stereo not drawn) [Compound 106, 8-(4-fluoro-2-methylphenyl)-5,6-dihydro-2-[5-(1-methyl-1H-pyrazol-4-yl)-1H-pyrrolo[3,2-b]pyridin-2-yl]-8H-[1,2,4]triazolo[5,1-c][1,4]oxazine] | > 10000 nM | – | – | 263.8 °C | 447 nM | – | – | – |
| Cc1ccccc1C1CCCn2nc(-c3cc4cc(-c5cnn(C)c5)ccc4[nH]3)nc21 (stereo not drawn) [Compound 31, 5,6,7,8-tetrahydro-8-(2-methylphenyl)-2-[5-(1-methyl-1H-pyrazol-4-yl)-1H-indol-2-yl]-[1,2,4]triazolo[1,5-a]pyridine] | > 10000 nM | – | – | 223.8 °C | 76 nM | – | – | – |
| COc1c(C#N)ccc2[nH]c(-c3nc4n(n3)CCOC4c3ccccc3Cl)cc12 (stereo not drawn) [Compound 137, 2-[8-(2-chlorophenyl)-5,6-dihydro-8H-[1,2,4]triazolo[5,1-c][1,4]oxazin-2-yl]-4-methoxy-1H-indole-5-carbonitrile] | – | 49 nM | > 10000 nM | 197.5 °C | – | – | – | – |
| COc1c(C#N)ccc2[nH]c(-c3nc4n(n3)CCOC4c3cccc(F)c3C)cc12 (stereo not drawn) [Compound 150, 2-[8-(3-fluoro-2-methylphenyl)-5,6-dihydro-8H-[1,2,4]triazolo[5,1-c][1,4]oxazin-2-yl]-4-methoxy-1H-indole-5-carbonitrile] | – | 2190 nM | > 10000 nM | 238.2 °C | – | – | – | – |
